This test deals with T1, ACE-2 (Homo sapiens, UniProt Q9BYF1).
T1 construct: a stop codon inserted after the serine immediately preceding the transmembrane domain; made in house; host or cells: CHO K1 cells (transient transfection, purified from conditioned medium)
Put plainly: ACE-2 Competitive Substrate Assay (ACS Assay). The class given is biochemical.

Setting [1] is: Ki class per key, compounds tested in 5% DMSO, 12 compound concentrations, 25° C., Ki=Kiapp/(1+[S]/Km), read-out: Human ACE-2 Activity.
The mark [2] stands for this setting: Table 3, very good ACE-2 inhibiting compounds, species not given, read-out: ACE-2 Activity, Ki.

The text below walks through data of patent US7045532B2 (Millennium Pharmaceuticals, Inc., priority 1999, dated 2006).

Each structure is given as a SMILES string. Like-named read-outs stand apart in the source and are kept apart here. A value given as a limit tells only on which side of the number the result lay.

T1 sequence (Q9BYF1 18-740 limits assumed): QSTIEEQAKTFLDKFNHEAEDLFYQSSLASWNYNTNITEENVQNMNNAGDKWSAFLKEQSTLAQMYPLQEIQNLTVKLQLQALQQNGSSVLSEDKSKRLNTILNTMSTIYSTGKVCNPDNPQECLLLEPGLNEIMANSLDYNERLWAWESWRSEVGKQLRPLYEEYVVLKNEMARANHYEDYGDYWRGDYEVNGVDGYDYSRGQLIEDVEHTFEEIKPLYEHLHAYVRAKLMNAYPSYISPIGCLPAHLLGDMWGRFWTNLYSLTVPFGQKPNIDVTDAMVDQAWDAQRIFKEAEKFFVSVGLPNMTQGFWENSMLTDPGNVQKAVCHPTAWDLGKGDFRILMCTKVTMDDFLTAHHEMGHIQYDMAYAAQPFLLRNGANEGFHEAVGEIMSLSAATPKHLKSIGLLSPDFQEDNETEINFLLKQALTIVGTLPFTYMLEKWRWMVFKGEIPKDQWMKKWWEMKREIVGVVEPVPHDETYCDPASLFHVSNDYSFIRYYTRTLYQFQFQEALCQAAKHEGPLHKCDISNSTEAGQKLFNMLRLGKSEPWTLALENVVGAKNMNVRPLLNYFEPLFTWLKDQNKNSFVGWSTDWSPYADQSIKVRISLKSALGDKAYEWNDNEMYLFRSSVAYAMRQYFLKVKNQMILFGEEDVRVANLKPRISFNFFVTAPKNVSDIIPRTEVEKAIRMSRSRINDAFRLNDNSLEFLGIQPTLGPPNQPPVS

For `O=C(O)[C@H](CCc1ccccc1)N[C@@H](Cc1cncn1Cc1cc(Cl)cc(Cl)c1)C(=O)O` [PN, (S,S) 2-{1-Carboxy-2-[3-(3,5-dichloro-benzyl)-3H-imidazol-4-yl]-ethylamino}-4-phenyl-butyric acid], the Ki by setting is: under setting [1], below 100 nM; under setting [2], below 50 nM.
As to `CC(C)C[C@H](N[C@@H](Cc1ccc(-n2cccc2)cc1)C(=O)O)C(=O)O` [PO, 2-[1-Carboxy-2-(4-pyrrol-1-yl-phenyl)-ethylamino]-4-methyl-pentanoic acid], the Ki is, setting by setting: under setting [1], above 500 nM; under setting [2], below 50 nM.
Turning to `CC(C)C[C@H](N[C@@H](Cn1ccn(CCc2ccccc2F)c1=O)C(=O)O)C(=O)O` [PP, 2-(1-Carboxy-2-{3-[2-(2-fluoro-phenyl)-ethyl]-2-oxo2,3-dihydro-imidazol-1-yl}-ethylamino)-4-methyl-pentanoic acid], the Ki under setting [1] is above 500 nM.
Still for that read-out and setting: the result for `CC(C)C[C@H](N[C@@H](CC#Cc1cc(Cl)cc(Cl)c1)C(=O)O)C(=O)O` [PR, 2-(1-Carboxy-3-methyl-butylamino)-5-(3,5-dichloro-phenyl)-pent-4-ynoic acid] reads above 500 nM; that for `CC(C)C[C@H](N[C@@H](Cc1ccc(Oc2cc(F)cc(F)c2)cc1)C(=O)O)C(=O)O` [PS, 2-[1-Carboxy-2-[4-(3,5-difluoro-phenoxy)-phenyl]-ethylamino]-4-methyl-pentanoic acid], above 500 nM; that for `CC(C)C[C@H](N[C@@H](Cc1ccccc1-c1cc(Cl)cc(Cl)c1)C(=O)O)C(=O)O` [PT, S,S-2-[1-Carboxy-2-(3′,5′dichloro-biphenyl-2-yl)-ethylamino]-4-methyl-pentanoic acid], 100 to 500 nM.
Same read-out and setting: the value for `CC(C)C[C@H](N[C@@H](Cc1ccc(C(=O)OC(C)(C)C)cc1)C(=O)O)C(=O)O` [PU, (S,S) 4-[2-Carboxy-2-(1-carboxy-3-methyl-butylamino)-ethyl]-benzoic acid tert-butyl ester] was below 100 nM; that for `CC(C)C[C@H](N[C@@H](CN1C(=O)CN(Cc2cc(F)cc(F)c2)C1=O)C(=O)O)C(=O)O` [PW, 2-[1-Carboxy-2-[3-(3,5-difluoro-benzyl)-2,5-dioxo-imidazolidin-1-yl]-ethylamino]-4-methyl-pentanoic acid] was below 100 nM.
Still for that read-out and setting: the result for `CC(C)C[C@H](N[C@@H](CN1C(=O)CN(Cc2cc(Cl)cc(Cl)c2)C1=O)C(=O)O)C(=O)O` [PX, 2-[1-Carboxy-2-[3-(3,5-dichloro-benzyl)-2,5-dioxo-imidazolidin-1-yl]-ethylamino]-4-methyl-pentanoic acid] reads below 100 nM; that for `CC(C)C[C@H](N[C@@H](CN1C(=O)CN(Cc2ccc(C(F)(F)F)cc2C(F)(F)F)C1=O)C(=O)O)C(=O)O` [PY, 2-[2-[3-(2,4-Bis-trifluoromethyl-benzyl)-2,5-dioxo-imidazolidin-1-yl]-1-carboxy-ethylamino]-4-methyl-pentanoic acid], above 500 nM.
Consider `Cc1ccc(-c2ccc(C[C@H](N[C@@H](CC(C)C)C(=O)O)C(=O)O)cc2)nc1` [PZ, (S,S)-2-{1-Carboxy-2-[4-(5-methyl-pyridin-2-yl)-phenyl]-ethylamino}-4-methyl-pentanoic acid], for which the Ki reads like this: under setting [1], below 100 nM; under setting [2], below 50 nM.
The matching figures for `Cc1ccnc(-c2ccc(C[C@H](N[C@@H](CC(C)C)C(=O)O)C(=O)O)cc2)c1` [QA, (S,S)-2-{1-Carboxy-2-[4-(4-methyl-pyridin-2-yl)-phenyl]-ethylamino}-4-methyl-pentanoic acid]: below 100 nM and 50 to 100 nM.
For `CCOc1ccnc(-c2ccc(C[C@H](N[C@@H](CC(C)C)C(=O)O)C(=O)O)cc2)c1Cl` [QB, (S,S)-2-{1-Carboxy-2-[4-(3-chloro-4-ethoxy-pyridin-2-yl)-phenyl]-ethylamino}-4-methyl pentanoic acid] the same measures were below 100 nM and 50 to 100 nM.
For `CC(C)C[C@H](N[C@@H](Cc1ccc(-c2cnc3ccccc3c2)cc1)C(=O)O)C(=O)O` [QC, (S,S)-2-[1-Carboxy-2-(4-quinolin-3-yl-phenyl)-ethylamino]-4-methyl-pentanoic acid] the same measures were below 100 nM and below 50 nM.
As to `CC(C)C[C@H](N[C@@H](Cc1ccc(C(=O)NCc2cc(F)cc(F)c2)cc1)C(=O)O)C(=O)O` [QD, 2-[1-Carboxy-2-[4-(3,5-difluoro-benzylcarbamoyl)phenyl]-ethylamino]-4-methyl-pentanoic acid], the Ki under setting [1] is above 500 nM.
On to `CC(C)C[C@H](N[C@@H](Cc1ccc(C(=O)Nc2cc(Cl)cc(Cl)c2)cc1)C(=O)O)C(=O)O` [QE, 2-[1-Carboxy-2-[4-(3,5-dichloro-phenylcarbamoyl)-phenyl]ethylamino]-4-methyl-pentanoic acid], for which the Ki was below 100 nM under setting [1] and below 50 nM under setting [2].
`CC(C)C[C@H](N[C@@H](Cc1ccc(C(=O)Nc2ccccc2)cc1)C(=O)O)C(=O)O` [QF, 2-[1-Carboxy-2-(4-phenylcarbamoyl-phenyl)-ethylamino]-4-methyl-pentanoic acid]: the Ki under setting [1] is 100 to 500 nM.
Same read-out and setting: the value for `CC(C)C[C@H](N[C@@H](Cc1ccc(C(=O)NCc2ccccc2)cc1)C(=O)O)C(=O)O` [QG, 2-[2-(4-Benzylcarbamoyl-phenyl)-1-carboxy-ethylamino]-4-methyl-pentanoic acid] was above 500 nM.
Turning to `CC(C)C[C@H](N[C@@H](Cc1ccc(C(=O)NC2CCCCC2)cc1)C(=O)O)C(=O)O` [QH, 2-[1-Carboxy-2-(4-cyclohexylcarbamoyl-phenyl)-ethylamino]-4-methyl-pentanoic acid], under setting [1], the Ki was above 500 nM.
`CC(C)C[C@H](N[C@@H](Cc1ccccc1C#N)C(=O)O)C(=O)O` [QI, 2-[1-Carboxy-2-(2-cyano-phenyl)-ethylamino]-4-methyl-pentanoic acid]: under setting [1], the Ki is 100 to 500 nM.
For the compound `CC(C)C[C@H](N[C@@H](Cc1ccc(Oc2ccccc2)cc1)C(=O)O)C(=O)O` [QJ, 2-[1-Carboxy-2-(4-phenoxy-phenyl)-ethylamino]-4-methyl-pentanoic acid], the Ki under setting [1] is 100 to 500 nM.
With `CC(C)C[C@H](N[C@@H](Cc1ccc(OCc2csc3ccc(Cl)cc23)cc1)C(=O)O)C(=O)O` [QK, 2-[1-Carboxy-2-[4-(5-chloro-benzo[b]thiophen-3-ylmethoxy)-phenyl]-ethylamino]-4-methyl-pentanoic acid], the Ki runs as follows: under setting [1], below 100 nM; under setting [2], below 50 nM.
The matching figures for `CC(C)C[C@H](N[C@@H](Cc1cc(-c2ccc(Cl)c(Cl)c2)on1)C(=O)O)C(=O)O` [QL, 2-[1-Carboxy-2-[5-(3,4-dichloro-phenyl)-isoxazol-3-yl]-ethylamino)-4-methylpentanoic acid]: below 100 nM and 50 to 100 nM.
As to `CC(C)C[C@H](N[C@@H](Cc1ccc(Oc2cc(Cl)cc(Cl)c2)cc1)C(=O)O)C(=O)O` [QM], under setting [1], the Ki lay in the range of 100 to 500 nM.
As to `CC(C)C[C@H](N[C@@H](Cc1ccccc1Oc1cc(Cl)cc(Cl)c1)C(=O)O)C(=O)O` [QN], the Ki by setting is: under setting [1], below 100 nM; under setting [2], below 50 nM.
On to `CC(C)C[C@H](N[C@@H](Cc1ccccc1OCc1cccc(Cl)c1)C(=O)O)C(=O)O` [QO, 2-[1-Carboxy-2-[2-(3-chloro-benzyloxy)-phenyl]-ethylamino]-4-methyl-pentanoic acid], for which the Ki under setting [1] was above 500 nM.
With `CC(C)C[C@H](N[C@@H](Cc1ccc(Oc2ccc(F)cc2)cc1)C(=O)O)C(=O)O` [QP, 2-[1-Carboxy-2-[4-(4-fluoro-phenoxy)-phenyl]-ethylamino]-4-methyl-pentanoic acid], the Ki runs as follows: under setting [1], below 100 nM; under setting [2], 50 to 100 nM.
For `Cc1ccc(-n2ccc(C[C@H](N[C@@H](CC(C)C)C(=O)O)C(=O)O)n2)cc1` [QQ, 2-[1-Carboxy-2-(1-p-tolyl-1H-pyrazol-3-yl)-ethylamino]-4-methyl-pentanoic acid] the same measures were below 100 nM and 50 to 100 nM.
For the compound `CC(C)C[C@H](N[C@@H](Cc1ccc(NC(=O)C2CCCC2)cc1)C(=O)O)C(=O)O` [QR, 2-[1-Carboxy-2-[4-(cyclopentanecarbonyl-amino)-phenyl]-ethylamino]-4-methyl-pentanoic acid], the Ki under setting [1] is 100 to 500 nM.
The same measure, in the same setting: the value for `CC(C)C[C@H](N[C@@H](Cc1ccc(NC(=O)C(C)(C)C)cc1)C(=O)O)C(=O)O` [QS, 2-{1-Carboxy-2-[4-(2,2-dimethyl-propionylamino)-phenyl]-ethylamino}-4-methyl-pentanoic acid] was 100 to 500 nM; that for `CC(C)C[C@H](N[C@@H](Cc1ccccc1OCc1csc2ccc(Cl)cc12)C(=O)O)C(=O)O` [QT, 2-{1-Carboxy-2-[2-(5-chloro-benzo[b]thiophen-3-ylmethoxy)-phenyl]-ethylamino}-4-methyl-pentanoic acid] was above 500 nM.
As to `CC(C)C[C@H](N[C@@H](Cc1cc(-c2ccc(Cl)cc2)on1)C(=O)O)C(=O)O` [QU, 2-(1-Carboxy-2-[5-(4-chloro-phenyl)-isoxazol-3-yl]-ethylamino]-4-methyl-pentanoic acid], the Ki was below 100 nM under setting [1] and below 50 nM under setting [2].
On to `CC(C)C[C@H](N[C@@H](Cc1cc(-c2ccccc2Cl)on1)C(=O)O)C(=O)O` [QV, 2-[1-Carboxy-2-[5-(2-chloro-phenyl)-isoxazol-3-yl]-ethylamino]-4-methyl-pentanoic acid], for which, under setting [1], the Ki was below 100 nM.
As for `CC(C)C[C@H](N[C@@H](Cc1ccc(OCC2COc3ccc(F)cc32)cc1)C(=O)O)C(=O)O` (stereo partly shown) [QW, 2-[1-Carboxy-2-[4-(5-fluoro-2,3-dihydro-benzofuran-3-ylmethoxy)-phenyl]-ethylamino]-4-methyl-pentanoic acid], the Ki under setting [1] is below 100 nM and the Ki under setting [2] is below 50 nM.
Consider `CC(C)C[C@H](N[C@@H](Cc1ccc(OCc2csc3ccccc23)cc1)C(=O)O)C(=O)O` [QX, 2-{2-[4-(Benzo[b]thiophen3-ylmethoxy)-phenyl]-1-carboxy-ethylamino]-4-methyl-pentanoic acid], for which, under setting [1], the Ki was below 100 nM.
